The record followed here is US10670605B2, “Cysteine reactive probes and uses thereof” (The Scripps Research Institute, priority 2015, dated 2020).

Common to all, as to assay: Competitive isoTOP-ABPP, cell lysates
Common to all, as to type: binding

One test addresses IRAK1 C608 (P51617) (Homo sapiens, UniProt P51617). To be noted: for isoTOP-ABPP reactivity profile ratio, P51617_C608 / isoTOP-ABPP reactivity ratio, P51617_C608: 500 μm; for isoTOP-ABPP ratio (reactivity profile), P51617_C608: 500 μm in-vitro ramos; for R value (DMSO/fragment) / isoTOP-ABPP ratio, P51617_C608: 500 μM, invitro, ramos.
The target of the next test is T1, DDX59 C453 (Q5T1V6) (Homo sapiens, UniProt Q5T1V6).
T1 sequence (Q5T1V6 1-619): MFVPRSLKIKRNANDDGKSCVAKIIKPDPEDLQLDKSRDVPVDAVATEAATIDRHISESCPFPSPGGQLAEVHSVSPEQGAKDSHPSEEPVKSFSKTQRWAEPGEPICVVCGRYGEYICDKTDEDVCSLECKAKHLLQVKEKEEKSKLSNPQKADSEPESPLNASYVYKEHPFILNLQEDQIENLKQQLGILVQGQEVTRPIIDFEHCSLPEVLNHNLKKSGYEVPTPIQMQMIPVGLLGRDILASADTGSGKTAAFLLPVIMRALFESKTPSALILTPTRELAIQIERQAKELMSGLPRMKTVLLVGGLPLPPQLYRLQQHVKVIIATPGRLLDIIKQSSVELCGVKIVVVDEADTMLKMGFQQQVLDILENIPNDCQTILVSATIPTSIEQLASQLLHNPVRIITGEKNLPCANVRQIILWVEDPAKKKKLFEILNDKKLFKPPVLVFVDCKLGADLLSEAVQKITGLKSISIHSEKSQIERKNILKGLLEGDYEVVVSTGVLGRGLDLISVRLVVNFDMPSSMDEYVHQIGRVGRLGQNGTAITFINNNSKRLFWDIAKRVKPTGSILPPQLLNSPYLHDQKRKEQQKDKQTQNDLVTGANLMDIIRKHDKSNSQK
To be noted: for isoTOP-ABPP reactivity profile ratio, Q5T1V6_C453: 500 μm; for R value (DMSO/fragment) / isoTOP-ABPP ratio, Q5T1V6_C453: 500 μM.

In another test the target is EP300 C1738 (Q09472) (Homo sapiens, UniProt Q09472). To be noted: for isoTOP-ABPP reactivity profile ratio, Q09472_C1738: 500 μm, in-vitro_ramos_231.
For a further test, the target named is T2, POU2F2 C346 (P09086) (Homo sapiens, UniProt P09086).
T2 sequence (P09086 1-479): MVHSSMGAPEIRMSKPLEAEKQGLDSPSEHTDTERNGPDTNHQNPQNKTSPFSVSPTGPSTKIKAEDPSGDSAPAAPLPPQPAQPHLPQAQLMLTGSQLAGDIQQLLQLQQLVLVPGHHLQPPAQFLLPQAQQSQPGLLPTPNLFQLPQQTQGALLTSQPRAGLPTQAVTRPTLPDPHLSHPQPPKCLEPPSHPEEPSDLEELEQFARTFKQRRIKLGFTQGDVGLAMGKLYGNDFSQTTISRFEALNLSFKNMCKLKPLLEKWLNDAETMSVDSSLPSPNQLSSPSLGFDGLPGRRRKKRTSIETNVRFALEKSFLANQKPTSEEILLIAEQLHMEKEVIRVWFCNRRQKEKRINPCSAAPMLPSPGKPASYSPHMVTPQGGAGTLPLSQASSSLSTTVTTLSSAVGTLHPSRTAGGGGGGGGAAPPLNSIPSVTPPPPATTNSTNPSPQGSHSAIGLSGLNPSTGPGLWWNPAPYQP
To be noted: for isoTOP-ABPP ratio, P09086_C346 / R value (DMSO/fragment): 500 μM.

Sequence of EP300 C1738 (Q09472) (Q09472 whole entry): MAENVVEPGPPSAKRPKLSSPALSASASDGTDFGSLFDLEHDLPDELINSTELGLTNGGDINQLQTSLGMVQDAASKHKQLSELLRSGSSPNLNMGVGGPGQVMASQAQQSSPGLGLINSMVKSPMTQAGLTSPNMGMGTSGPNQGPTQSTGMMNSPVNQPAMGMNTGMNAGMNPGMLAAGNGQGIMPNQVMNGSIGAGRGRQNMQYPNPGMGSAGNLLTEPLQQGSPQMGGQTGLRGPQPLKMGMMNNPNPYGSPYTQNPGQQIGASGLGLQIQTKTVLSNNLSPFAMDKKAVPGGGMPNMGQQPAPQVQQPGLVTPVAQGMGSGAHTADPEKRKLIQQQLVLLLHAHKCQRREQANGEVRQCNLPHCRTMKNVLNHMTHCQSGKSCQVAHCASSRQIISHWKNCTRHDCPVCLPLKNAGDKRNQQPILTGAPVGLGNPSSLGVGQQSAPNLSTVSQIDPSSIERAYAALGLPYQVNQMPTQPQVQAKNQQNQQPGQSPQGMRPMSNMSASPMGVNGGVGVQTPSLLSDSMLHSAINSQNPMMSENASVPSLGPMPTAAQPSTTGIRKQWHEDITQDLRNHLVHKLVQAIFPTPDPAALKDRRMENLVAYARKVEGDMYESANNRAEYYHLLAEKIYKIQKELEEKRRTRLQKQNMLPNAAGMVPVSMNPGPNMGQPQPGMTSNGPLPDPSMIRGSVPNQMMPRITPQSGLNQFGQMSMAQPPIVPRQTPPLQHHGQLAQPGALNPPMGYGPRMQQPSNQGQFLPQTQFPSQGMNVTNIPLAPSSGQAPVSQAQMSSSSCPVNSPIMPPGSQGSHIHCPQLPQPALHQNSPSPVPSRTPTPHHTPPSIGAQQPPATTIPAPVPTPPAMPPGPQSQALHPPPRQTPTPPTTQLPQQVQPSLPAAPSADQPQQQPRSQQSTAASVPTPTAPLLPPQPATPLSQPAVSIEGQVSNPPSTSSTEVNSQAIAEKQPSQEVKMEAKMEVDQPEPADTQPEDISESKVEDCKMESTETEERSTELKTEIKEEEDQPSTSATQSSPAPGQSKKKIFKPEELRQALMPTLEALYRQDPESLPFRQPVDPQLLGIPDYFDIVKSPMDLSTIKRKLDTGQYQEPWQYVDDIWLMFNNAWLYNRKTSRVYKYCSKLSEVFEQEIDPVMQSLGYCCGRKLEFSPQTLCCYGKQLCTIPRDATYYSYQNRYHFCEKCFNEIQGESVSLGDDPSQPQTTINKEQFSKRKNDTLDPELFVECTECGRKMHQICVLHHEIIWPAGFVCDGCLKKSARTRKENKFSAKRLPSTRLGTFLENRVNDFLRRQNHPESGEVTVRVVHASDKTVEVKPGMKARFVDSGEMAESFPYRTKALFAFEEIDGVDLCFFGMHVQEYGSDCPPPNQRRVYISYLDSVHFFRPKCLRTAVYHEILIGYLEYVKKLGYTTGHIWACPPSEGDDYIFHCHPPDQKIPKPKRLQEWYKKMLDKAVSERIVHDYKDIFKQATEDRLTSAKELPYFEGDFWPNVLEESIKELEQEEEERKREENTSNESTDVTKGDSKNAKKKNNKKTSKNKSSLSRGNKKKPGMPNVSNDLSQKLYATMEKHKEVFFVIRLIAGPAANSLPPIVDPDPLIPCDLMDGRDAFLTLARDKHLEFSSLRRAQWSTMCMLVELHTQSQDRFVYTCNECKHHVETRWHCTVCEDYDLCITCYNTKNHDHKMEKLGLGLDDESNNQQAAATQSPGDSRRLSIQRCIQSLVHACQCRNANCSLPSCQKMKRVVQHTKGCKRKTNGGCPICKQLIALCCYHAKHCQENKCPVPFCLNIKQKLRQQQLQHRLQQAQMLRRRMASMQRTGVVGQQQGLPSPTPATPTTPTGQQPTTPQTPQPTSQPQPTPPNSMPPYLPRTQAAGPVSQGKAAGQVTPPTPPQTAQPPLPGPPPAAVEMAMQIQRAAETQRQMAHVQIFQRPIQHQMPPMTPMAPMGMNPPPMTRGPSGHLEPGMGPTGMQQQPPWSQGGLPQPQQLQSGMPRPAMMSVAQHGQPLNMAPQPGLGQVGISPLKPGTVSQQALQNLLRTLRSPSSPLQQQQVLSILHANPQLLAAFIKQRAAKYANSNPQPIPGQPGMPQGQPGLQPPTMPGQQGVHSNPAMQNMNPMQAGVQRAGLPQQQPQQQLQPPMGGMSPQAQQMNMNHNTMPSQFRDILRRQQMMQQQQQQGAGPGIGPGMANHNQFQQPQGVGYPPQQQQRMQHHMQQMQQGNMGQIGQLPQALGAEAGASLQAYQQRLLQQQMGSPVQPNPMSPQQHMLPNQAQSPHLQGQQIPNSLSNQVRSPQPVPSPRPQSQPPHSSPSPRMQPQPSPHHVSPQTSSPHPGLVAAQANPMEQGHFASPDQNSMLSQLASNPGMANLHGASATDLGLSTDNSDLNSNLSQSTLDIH
Sequence of IRAK1 C608 (P51617) (P51617 whole entry, the tested form may be a part): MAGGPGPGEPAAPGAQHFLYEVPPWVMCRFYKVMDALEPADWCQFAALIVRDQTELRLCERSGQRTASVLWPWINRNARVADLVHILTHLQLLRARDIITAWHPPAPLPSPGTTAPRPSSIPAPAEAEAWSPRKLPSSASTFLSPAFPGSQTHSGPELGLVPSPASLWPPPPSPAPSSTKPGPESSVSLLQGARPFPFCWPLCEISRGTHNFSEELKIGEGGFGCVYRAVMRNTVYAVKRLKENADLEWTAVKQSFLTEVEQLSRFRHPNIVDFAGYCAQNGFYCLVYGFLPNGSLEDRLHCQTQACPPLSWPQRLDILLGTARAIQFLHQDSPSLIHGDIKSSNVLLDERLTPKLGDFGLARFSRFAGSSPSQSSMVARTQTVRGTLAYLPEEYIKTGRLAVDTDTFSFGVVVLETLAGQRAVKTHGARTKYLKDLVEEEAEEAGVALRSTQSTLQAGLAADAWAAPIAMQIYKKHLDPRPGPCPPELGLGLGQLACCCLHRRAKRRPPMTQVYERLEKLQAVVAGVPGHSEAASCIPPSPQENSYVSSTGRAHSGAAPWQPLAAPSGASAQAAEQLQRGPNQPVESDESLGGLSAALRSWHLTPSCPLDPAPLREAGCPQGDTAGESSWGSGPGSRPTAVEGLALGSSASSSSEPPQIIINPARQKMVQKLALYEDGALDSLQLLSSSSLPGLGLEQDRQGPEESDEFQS

As to `O=C(CCl)Nc1cccc2ncccc12` [compound 51], at IRAK1 C608 (P51617) (in-vitro_ramos), the “isoTOP-ABPP reactivity profile ratio, P51617_C608” value was 1.1. The “isoTOP-ABPP reactivity profile ratio, Q5T1V6_C453” value at DDX59 C453 (Q5T1V6) (in-vitro_ramos) turned out to be 1.8.
Regarding `O=C(CCl)N1CCN(CC(=O)N2CCOCC2)CC1` [compound 29], the “isoTOP-ABPP ratio (reactivity profile), Q09472_C1738” value at EP300 C1738 (Q09472) (500 μm in-vitro ramos_231) was 1.3.
For the molecule `CC(C)CCOCCNC(=O)CCl` [compound 27], the “isoTOP-ABPP ratio (reactivity profile), Q09472_C1738” value on EP300 C1738 (Q09472) (500 μm in-vitro ramos_231) is 1.0. Further, at DDX59 C453 (Q5T1V6) (500 μm in-vitro ramos_231), the “isoTOP-ABPP ratio (reactivity profile), Q5T1V6_C453” value stood at 1.0.
Turning to `O=C(CCl)N1CCC(C(O)(c2ccccc2)c2ccccc2)CC1` [compound 20], the “isoTOP-ABPP ratio (reactivity profile), Q09472_C1738” value on EP300 C1738 (Q09472) (500 μm in-vitro ramos) was 3.2. In addition, the “isoTOP-ABPP ratio (reactivity profile), P09086_C346” value on POU2F2 C346 (P09086) (500 μm in-vitro ramos) was 2.3.
Regarding `N#CC(=Cc1ccc(-c2ccccc2Cl)o1)C(N)=O` [compound 42], the “isoTOP-ABPP reactivity profile ratio, Q5T1V6_C453” value at DDX59 C453 (Q5T1V6) (in-vitro_ramos) amounted to 1.0.
In the case of `N#C/C(=C\c1cc(C(F)(F)F)cc(C(F)(F)F)c1)C(N)=O` [compound 23], the “isoTOP-ABPP ratio (reactivity profile), P09086_C346” value on POU2F2 C346 (P09086) (500 μm in-vitro ramos) is listed as 1.1. The “isoTOP-ABPP ratio (reactivity profile), P51617_C608” value on IRAK1 C608 (P51617) is 1.5.
In the case of `O=C(CCl)NC12CC3CC(CC(C3)C1)C2` [compound 21], the “isoTOP-ABPP ratio (reactivity profile), P09086_C346” value at POU2F2 C346 (P09086) (500 μm in-vitro ramos_231) is recorded as 0.9.
Consider `COc1ccc2c(c1)CCCN2C(=O)CCl` [compound 2], for which the “R value (DMSO/fragment)” value on EP300 C1738 (Q09472) (500 μM, invitro, ramos) was 12.7; on IRAK1 C608 (P51617) it was 2.5; on DDX59 C453 (Q5T1V6) (in vitro, MDA-MB-231), 20.0; at DDX59 C453 (Q5T1V6) (invitro, ramos), 20.0.
Consider `Cn1cc(S(=O)(=O)N2CCOCC2)cc1C(=O)NC(=O)CCl` [compound 11], for which the “isoTOP-ABPP ratio, P09086_C346” value at POU2F2 C346 (P09086) (invitro, ramos) was 1.7. In addition, the “isoTOP-ABPP ratio, P51617_C608” value at IRAK1 C608 (P51617) was found to be 1.3. For the same molecule, the “isoTOP-ABPP ratio, Q5T1V6_C453” value at DDX59 C453 (Q5T1V6) (invitro, 231) came out at 20.0.
As to `C=CC(=O)N(Cc1cccnc1)c1ccc(Oc2ccccc2)c(C(F)(F)F)c1` [compound 15], the “isoTOP-ABPP ratio (reactivity profile), P09086_C346” value at POU2F2 C346 (P09086) (500 μm in-vitro ramos) was 0.8.
With `O=C(CCl)NCCc1c[nH]c2ccccc12` [compound 13], the “isoTOP-ABPP ratio, Q09472_C1738” value on EP300 C1738 (Q09472) (500 μM, invitro, ramos) is 0.7. For the same molecule, the “isoTOP-ABPP ratio, P09086_C346” value at POU2F2 C346 (P09086) (invitro, ramos) was determined as 0.6. Besides, the “isoTOP-ABPP ratio, Q5T1V6_C453” value on DDX59 C453 (Q5T1V6) (invitro, ramos) is recorded as 1.4.
With `Cc1ccc(C=C(C#N)C(=O)NCCN2CCOCC2)cc1` [compound 41], the “isoTOP-ABPP reactivity ratio, P51617_C608” value at IRAK1 C608 (P51617) (in-vitro_ramos_231) is given as 1.1.
For the molecule `CC(Br)C(=O)Nc1cc(C(F)(F)F)cc(C(F)(F)F)c1` (centres unmarked) [compound 24], the “isoTOP-ABPP ratio (reactivity profile), P09086_C346” value at POU2F2 C346 (P09086) (500 μm in-vitro ramos) stood at 1.1. In addition, the “isoTOP-ABPP ratio (reactivity profile), P51617_C608” value at IRAK1 C608 (P51617) was determined as 1.3. In addition, the “isoTOP-ABPP ratio (reactivity profile), Q5T1V6_C453” value on DDX59 C453 (Q5T1V6) (500 μm in-vitro ramos) is 1.7.
On to `O=C(CCl)Nc1cc(C(F)(F)F)cc(C(F)(F)F)c1` [compound 3], for which the “R value (DMSO/fragment)” value on POU2F2 C346 (P09086) (in vitro, MDA-MB-231) turned out to be 1.7; at POU2F2 C346 (P09086) (invitro, ramos), 5.5; at IRAK1 C608 (P51617) it was 20.0; at DDX59 C453 (Q5T1V6) (in vitro, MDA-MB-231) it was 20.0.
In the case of `CC(C)(C)c1cc(NC(=O)CCl)on1` [compound 32], the “isoTOP-ABPP reactivity ratio, P51617_C608” value is 2.9 at IRAK1 C608 (P51617) (in-vitro_ramos) and 5.8 on IRAK1 C608 (P51617) (in-vitro_ramos_231).
As for `COc1cc(NC(=O)CCl)cc(OC)c1` [compound 43], the “isoTOP-ABPP reactivity profile ratio, Q09472_C1738” value on EP300 C1738 (Q09472) came out at 2.2. Also, the “isoTOP-ABPP reactivity profile ratio, Q5T1V6_C453” value on DDX59 C453 (Q5T1V6) (in-vitro_ramos_231) was 20.0.
Regarding `C=CC(=O)N(c1ccccc1)c1ccc(Br)cc1` [compound 5], the “isoTOP-ABPP ratio, Q09472_C1738” value at EP300 C1738 (Q09472) (500 μM, invitro, ramos) amounted to 20.0. Also, at POU2F2 C346 (P09086) (invitro, ramos), the “isoTOP-ABPP ratio, P09086_C346” value is recorded as 4.6. The “isoTOP-ABPP ratio, P51617_C608” value at IRAK1 C608 (P51617) turned out to be 10.1.
On to `O=C(CCl)Nc1ccc(-c2ccccc2)cc1` [compound 52], for which the “isoTOP-ABPP reactivity profile ratio, Q09472_C1738” value at EP300 C1738 (Q09472) is reported as 1.1. The “isoTOP-ABPP reactivity profile ratio, P51617_C608” value on IRAK1 C608 (P51617) (in-vitro_ramos) was found to be 17.6.
In the case of `C=CC(=O)Nc1cc(F)c(N2CCN(C(=O)OC(C)(C)C)CC2)c(F)c1` [compound 38], the “isoTOP-ABPP reactivity ratio, P51617_C608” value at IRAK1 C608 (P51617) (in-vitro_ramos) was 2.4.
With `C=CC(=O)N(Cc1cccnc1)c1cc(C(F)(F)F)cc(C(F)(F)F)c1` [compound 31], the “isoTOP-ABPP reactivity ratio, P09086_C346” value on POU2F2 C346 (P09086) (500 μm, in-vitro_ramos) is 0.6.
`CC(Cl)C(=O)Nc1cc(C(F)(F)F)cc(C(F)(F)F)c1` (centres unmarked) [compound 25]: the “isoTOP-ABPP ratio (reactivity profile), Q09472_C1738” value at EP300 C1738 (Q09472) (500 μm in-vitro ramos_231) was 1.6. Moreover, the “isoTOP-ABPP ratio (reactivity profile), P09086_C346” value on POU2F2 C346 (P09086) (500 μm in-vitro ramos_231) turned out to be 0.7. Further, at DDX59 C453 (Q5T1V6) (500 μm in-vitro ramos_231), the “isoTOP-ABPP ratio (reactivity profile), Q5T1V6_C453” value worked out at 0.9.
